The target in the experiment is T1, human GLP-1 receptor (Homo sapiens, UniProt P43220).
T1 construct: expressed in transfected cells; host or cells: membranes of BHK cells (parent BHKTS13), clone FCW467-12A
The experiment is described as follows: Assay (I)(a) GLP-1 receptor activation, CRE luciferase reporter gene assay in BHK cells. The experiment is classed as cell-based. Particulars: without presence of serum albumin; read-out: GLP-1R EC50 (pM) [Assay (I)(a)]. Summed up:
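Stable BHK clone expressing human GLP-1 receptor with CRE-driven firefly luciferase, 5×10EE3 cells/well in medium with 2% ovalbumin and 0.2% Pluronic F-68. Compounds at 1×10EE-13 to 1×10EE-6 M final, 3 h at 37° C.; luminescence read, EC50 (pM) from four-parameter fit.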
(A reporter such as luciferase makes a cellular process visible.)

Starred links: 1 amine or outer side, 2 acyl side, 3 side chain; linkers in the order of their positions; H or OH if unused. Non-standard residues stand in square brackets, D forms with d. Residues, ends and D or L forms follow the SMILES beside them. Groups on a side chain read outwards from the residue. *: point of attachment. C18 diacid = O=C(O)CCCCCCCCCCCCCCCCC(=O)*; γGlu = O=C(O)[C@H](CCC(=O)[*:2])N[*:1]; AEEA = NCCOCCOCC(=O)O; Aib = CC(C)(N)C(=O)O

One may read the EC50 as the concentration at which the effect is half-maximal.

T1 sequence (P43220 24-463): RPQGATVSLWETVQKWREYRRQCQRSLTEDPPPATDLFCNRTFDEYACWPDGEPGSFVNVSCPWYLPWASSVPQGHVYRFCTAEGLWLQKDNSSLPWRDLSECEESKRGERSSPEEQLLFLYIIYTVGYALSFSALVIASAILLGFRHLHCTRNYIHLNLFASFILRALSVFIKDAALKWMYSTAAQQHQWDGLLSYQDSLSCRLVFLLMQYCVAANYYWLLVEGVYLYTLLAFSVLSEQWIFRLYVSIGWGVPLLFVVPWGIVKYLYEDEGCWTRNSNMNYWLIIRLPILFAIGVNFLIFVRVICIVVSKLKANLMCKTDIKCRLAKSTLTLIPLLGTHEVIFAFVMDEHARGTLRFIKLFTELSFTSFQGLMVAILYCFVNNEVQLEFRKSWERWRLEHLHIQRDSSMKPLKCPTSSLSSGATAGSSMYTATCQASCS

Consider `CC[C@H](C)[C@H](NC(=O)[C@H](CC(C)C)NC(=O)[C@H](Cc1c[nH]c2ccccc12)NC(=O)[C@H](CCCCNC(=O)COCCOCCNC(=O)COCCOCCNC(=O)CC[C@H](NC(=O)CC[C@H](NC(=O)CC[C@H](NC(=O)CCCCCCCCCCCCCCCCC(=O)O)C(=O)O)C(=O)O)C(=O)O)NC(=O)[C@@H](NC(=O)[C@H](Cc1ccccc1)NC(=O)[C@H](CCC(=O)O)NC(=O)[C@H](CCCNC(=N)N)NC(=O)[C@H](C)NC(=O)[C@H](CCCNC(=N)N)NC(=O)[C@H](CCCNC(=N)N)NC(=O)[C@H](C)NC(=O)[C@H](CC(=O)O)NC(=O)[C@H](CC(C)C)NC(=O)[C@H](Cc1ccc(O)cc1)NC(=O)[C@H](CCCCN)NC(=O)[C@H](CO)NC(=O)[C@H](Cc1ccc(O)cc1)NC(=O)[C@H](CC(=O)O)NC(=O)[C@H](CO)NC(=O)[C@@H](NC(=O)[C@H](Cc1ccccc1)NC(=O)[C@@H](NC(=O)CNC(=O)[C@H](CCC(N)=O)NC(=O)C(C)(C)NC(=O)[C@@H](N)Cc1c[nH]cn1)[C@@H](C)O)[C@@H](C)O)C(C)C)C(=O)N[C@@H](CO)C(=O)N[C@H](C(N)=O)[C@@H](C)O` [Chem. 4, N^ε24-[2-[2-[2-[[2-[2-[2-[[(4S)-4-carboxy-4-[[(4S)-4-carboxy-4-[[(4S)-4-carboxy-4-(17-carboxyheptadecanoylamino)butanoyl]amino]butanoyl]amino]butanoyl]amino]ethoxy]ethoxy]acetyl]amino]ethoxy]ethoxy]acetyl]-[Aib2,Ala16,Arg20,Glu21,Lys24,Ile27,Ser28]-Glucagon amide] (H-H[Aib]QGTFTSDYSKYLDARRAREFVK([AEEA-AEEA-γGlu-γGlu-γGlu-C18 diacid])WLIST-NH2; N-terminus assumed), for which the EC50 amounted to 3 pM.
With `CC[C@H](C)[C@H](NC(=O)[C@H](CC(C)C)NC(=O)[C@H](Cc1c[nH]c2ccccc12)NC(=O)[C@H](CCC(N)=O)NC(=O)[C@@H](NC(=O)[C@H](Cc1ccccc1)NC(=O)[C@H](CC(=O)O)NC(=O)[C@H](CCC(N)=O)NC(=O)[C@H](C)NC(=O)[C@H](CCCNC(=N)N)NC(=O)[C@H](CCCNC(=N)N)NC(=O)[C@H](C)NC(=O)[C@H](CC(=O)O)NC(=O)[C@H](CC(C)C)NC(=O)[C@H](Cc1ccc(O)cc1)NC(=O)[C@H](CCCCN)NC(=O)[C@H](CO)NC(=O)[C@H](CC(C)C)NC(=O)[C@H](CC(=O)O)NC(=O)[C@H](CO)NC(=O)[C@@H](NC(=O)[C@H](Cc1ccccc1)NC(=O)[C@@H](NC(=O)CNC(=O)[C@H](CCC(N)=O)NC(=O)C(C)(C)NC(=O)[C@@H](N)Cc1c[nH]cn1)[C@@H](C)O)[C@@H](C)O)C(C)C)C(=O)N[C@@H](CCCCNC(=O)COCCOCCNC(=O)COCCOCCNC(=O)CC[C@H](NC(=O)CC[C@H](NC(=O)CC[C@H](NC(=O)CCCCCCCCCCCCCCCCC(=O)O)C(=O)O)C(=O)O)C(=O)O)C(=O)N[C@H](C(N)=O)[C@@H](C)O` [Chem. 7, N^ε28-[2-[2-[2-[[2-[2-[2-[[(4S)-4-carboxy-4-[[(4S)-4-carboxy-4-[[(4S)-4-carboxy-4-(17-carboxyheptadecanoylamino)butanoyl]amino]butanoyl]amino]butanoyl]amino]ethoxy]ethoxy]acetyl]amino]ethoxy]ethoxy]acetyl]-[Aib2,Leu10,Ala16,Ile27,Lys28]-Glucagon amide] (H-H[Aib]QGTFTSDLSKYLDARRAQDFVQWLIK([AEEA-AEEA-γGlu-γGlu-γGlu-C18 diacid])T-NH2; N-terminus assumed), the 50% effective concentration (EC50) is 2 pM.
